Each block holds one compound with its values, some of them ahead of it.
Key:
[1] = molecular target: Endothelial PAS domain-containing protein 1 (Homo sapiens, UniProt Q99814)
Description: Agonist activity at HIF-2alpha in human 786-0 cells assessed as increase in VEGF secretion incubated for 20 hrs by ELISA

in vivo [2] = conditions: male, Sprague-Dawley, rat, po, 5 mg/kg
Description: Tmax in male Sprague-Dawley rat at 5 mg/kg, po measured after 32 hrs by LC-MS/MS analysis

in vivo [3] = conditions: male, Sprague-Dawley, rat, po, 5 mg/kg; remark: listed apart in the source
Description: Oral bioavailability in male Sprague-Dawley rat at 5 mg/kg measured after 32 hrs by LC-MS/MS analysis

[4] = MRT (0 to t) in male Sprague-Dawley rat at 5 mg/kg, po measured after 32 hrs by LC-MS/MS analysis; conditions: in vivo
[5] = MRT (0 to t) in male Sprague-Dawley rat at 0.5 mg/kg, iv measured after 32 hrs by LC-MS/MS analysis; conditions: in vivo
[6] = Clearance in male Sprague-Dawley rat at 5 mg/kg, po measured after 32 hrs by LC-MS/MS analysis; conditions: in vivo
in vivo [7] = conditions: male, Sprague-Dawley, rat, po, 5 mg/kg; remark: listed apart in the source
Description: AUC (0 to t) in male Sprague-Dawley rat at 5 mg/kg, po measured after 32 hrs by LC-MS/MS analysis

in vivo [8] = conditions: male, Sprague-Dawley, rat, iv, 0.5 mg/kg
Description: Tmax in male Sprague-Dawley rat at 0.5 mg/kg, iv measured after 32 hrs by LC-MS/MS analysis

[9] = Half-life in male Sprague-Dawley rat at 5 mg/kg, po measured after 32 hrs by LC-MS/MS analysis; conditions: in vivo
[10] = Volume of distribution at steady state in male Sprague-Dawley rat at 0.5 mg/kg, iv measured after 32 hrs by LC-MS/MS analysis; conditions: in vivo
[11] = Half-life in male Sprague-Dawley rat at 0.5 mg/kg, iv measured after 32 hrs by LC-MS/MS analysis; conditions: in vivo
in vivo [12] = conditions: male, Sprague-Dawley, rat, iv, 0.5 mg/kg; remark: listed apart in the source
Description: AUC (0 to t) in male Sprague-Dawley rat at 0.5 mg/kg, iv measured after 32 hrs by LC-MS/MS analysis

in vivo [13] = conditions: male, Sprague-Dawley, rat, po, 5 mg/kg; remark: listed apart in the source
Description: Cmax in male Sprague-Dawley rat at 5 mg/kg, po measured after 32 hrs by LC-MS/MS analysis

[14] = Clearance in male Sprague-Dawley rat at 0.5 mg/kg, iv measured after 32 hrs by LC-MS/MS analysis; conditions: in vivo
in vivo [15] = conditions: male, Sprague-Dawley, rat, iv, 0.5 mg/kg; remark: listed apart in the source
Description: Cmax in male Sprague-Dawley rat at 0.5 mg/kg, iv measured after 32 hrs by LC-MS/MS analysis

Sequence of Endothelial PAS domain-containing protein 1 (Q99814 whole entry, the tested form may be a part): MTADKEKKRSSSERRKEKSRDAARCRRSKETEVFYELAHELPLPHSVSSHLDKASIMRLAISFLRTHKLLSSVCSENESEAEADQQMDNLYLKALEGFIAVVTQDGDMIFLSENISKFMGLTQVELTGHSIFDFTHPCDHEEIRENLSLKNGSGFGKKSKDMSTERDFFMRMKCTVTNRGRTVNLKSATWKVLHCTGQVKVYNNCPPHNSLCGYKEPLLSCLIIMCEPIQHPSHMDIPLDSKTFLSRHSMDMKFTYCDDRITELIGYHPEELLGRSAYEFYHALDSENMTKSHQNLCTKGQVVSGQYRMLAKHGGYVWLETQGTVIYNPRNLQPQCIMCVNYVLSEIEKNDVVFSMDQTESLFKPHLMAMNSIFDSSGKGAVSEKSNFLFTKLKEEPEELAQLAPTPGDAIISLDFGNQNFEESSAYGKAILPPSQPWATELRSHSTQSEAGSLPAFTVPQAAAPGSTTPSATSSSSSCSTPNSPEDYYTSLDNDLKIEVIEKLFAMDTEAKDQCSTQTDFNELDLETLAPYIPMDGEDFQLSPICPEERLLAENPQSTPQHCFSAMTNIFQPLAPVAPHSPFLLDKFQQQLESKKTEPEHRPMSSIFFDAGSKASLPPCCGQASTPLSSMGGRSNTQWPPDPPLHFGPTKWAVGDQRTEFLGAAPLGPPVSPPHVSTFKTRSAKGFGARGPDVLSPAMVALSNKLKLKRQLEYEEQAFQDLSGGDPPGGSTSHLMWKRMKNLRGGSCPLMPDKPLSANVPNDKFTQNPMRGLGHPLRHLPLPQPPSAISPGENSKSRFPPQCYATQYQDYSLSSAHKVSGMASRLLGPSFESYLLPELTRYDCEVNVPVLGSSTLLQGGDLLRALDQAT

Structure (SMILES): Cc1onc(-c2ccccc2Cl)c1C(=O)Nc1cc(C(F)(F)F)ccn1
EC50 [1]: 5.62 µM

Structure (SMILES): Cc1onc(-c2ccccc2Cl)c1C(=O)N1CCOCC1
EC50 [1]: 9.86 µM

Structure (SMILES): Cc1onc(-c2ccccc2F)c1C(=O)Nc1cccc(C(F)(F)F)c1
EC50 [1]: 10 µM

Structure (SMILES): Cc1onc(-c2ccccc2Cl)c1C(=O)Nc1cccc(C#N)c1
EC50 [1]: 6.21 µM

Stronger by EC50 [1], values ahead:

EC50 [1]: 5.01 µM
Structure (SMILES): Nc1ncc(C(=O)Nc2cccc(C(F)(F)F)c2)c(-c2ccccc2Cl)n1

Tmax at 32 h (in vivo [2]): 1.33 h
bioavailability at 32 h (in vivo [3]): 68.7%
MRT last at 32 h [4]: 4.6 h
MRT last at 32 h [5]: 1.54 h
CL/F at 32 h [6]: 8.83 mL/min/kg
EC50 [1]: 1.78 µM
AUC(0-t) at 32 h (in vivo [7]): 11100 ng·h/mL
Tmax at 32 h (in vivo [8]): 1.8 min
half-life at 32 h [9]: 5.09 h
Vd at 32 h [10]: 0.53 L/kg
half-life at 32 h [11]: 2.53 h
AUC(0-t) at 32 h (in vivo [12]): 1610 ng·h/mL
Cmax at 32 h (in vivo [13]): 1290 ng/mL
clearance at 32 h [14]: 5.33 mL/min/kg
Cmax at 32 h (in vivo [15]): 1620 ng/mL
Structure (SMILES): O=C(Nc1cccc(C(F)(F)F)c1)c1cn[nH]c1-c1ccccc1Cl

Tmax at 32 h (in vivo [2]): 1.5 h
bioavailability at 32 h (in vivo [3]): 7.02%
MRT last at 32 h [4]: 7.79 h
EC50 [1]: 2.29 µM
AUC(0-t) at 32 h (in vivo [7]): 194 ng·h/mL
Tmax at 32 h (in vivo [8]): 1.8 min
AUC(0-t) at 32 h (in vivo [12]): 278 ng·h/mL
Cmax at 32 h (in vivo [13]): 35.9 ng/mL
Cmax at 32 h (in vivo [15]): 285 ng/mL
Structure (SMILES): Cc1onc(-c2ccccc2OC(F)F)c1C(=O)Nc1cccc(C(F)(F)F)c1

Reference: ChEMBL document CHEMBL5543101, “Identification of 3-aryl-5-methyl-isoxazole-4-carboxamide derivatives and analogs as novel HIF-2α agonists through docking-based virtual screening and structural modification” (Eur J Med Chem, 2024)
